# Test results taken from patent publication US9314030B2, “Particulate wood preservative and method for producing same” (Koppers Performance Chemicals Inc., priority 2004, dated 2016).
# Where two headings read alike, the source gives them in different places.
# Experiments:
# [1] = Wet milling of chlorothalonil with 0.5-0.6 mm cerium-doped zirconium oxide beads, particle size; format: physicochemical
# Procedure: The laboratory-sized vertical mill was provided by CB Mills, model# L-3-J. The mill has a 2 liter capacity and is jacketed for cooling. Unless otherwise specified, ambient water was cycled through the mill cooling jacket during operation. The internal dimensions are 3.9″ diameter by 9.1″ height. The mill uses a standard 3×3″ disk agitator (mild steel) on a stainless steel shaft, and it operates at 2,620 rpm.
# The media used in this Example was 0.4-0.5 mm zirconium silicate beads supplied by CB Mills. All particle size determinations were made with a Sedigraph™ 5100T manufactured by Micromeritics, which uses x-ray detection and bases calculations of size on Stokes' Law.
# The same mill and conditions were used in this experiment as in experiment 1. However, the grinding media was 0.5-0.6 mm cerium-doped zirconium oxide beads obtained from CB Mills. The density of the cerium doped zirconium oxide is ˜6.0 g/cm^3. […] The total batch weight was about 600 g.
# [2] = treated wood; cited from earlier work
# [3] = 0.4-0.5 mm zirconium silicate, milling time 0 min
# [4] = 0.4-0.5 mm zirconium silicate, milling time 30 min
# [5] = 0.4-0.5 mm zirconium silicate, milling time 60 min
# [6] = 0.4-0.5 mm zirconium silicate, milling time 90 min
# [7] = 0.4-0.5 mm zirconium silicate, milling time 120 min
# [8] = 0.4-0.5 mm zirconium silicate, milling time 150 min
# [9] = 0.4-0.5 mm zirconium silicate, milling time 180 min
# [10] = 0.4-0.5 mm zirconium silicate, milling time 270 min
# [11] = 0.4-0.5 mm zirconium silicate, milling time 450 min
# [12] = 0.5-0.6 mm cerium-doped zirconium oxide, milling time 0 min
# [13] = 0.5-0.6 mm cerium-doped zirconium oxide, milling time 90 min
# [14] = 0.5-0.6 mm cerium-doped zirconium oxide, milling time 240 min
# [15] = 0.5 mm zirconia milling media, in 90 minutes
# [16] = 0.5 mm zirconia milling media, in 6 hours
compound,measurement,setting,value
N#Cc1c(Cl)c(Cl)c(Cl)c(C#N)c1Cl [chlorothalonil],d90,"0.4-0.5 mm zirconium silicate, at 60 minutes",about 2 microns
same,Particle Size Data-Volume % With Diamter Greater Than 2 μm,[3],95 Volume %
same,Particle Size Data-Volume % With Diamter Greater Than 5 μm,[3],48 Volume %
same,Particle Size Data-Volume % With Diamter Greater Than 10 μm,[3],10 Volume %
same,d50,[3],4.9 μm
same,Particle Size Data-Volume % With Diamter Greater Than 1 μm,[4],68 Volume %
same,Particle Size Data-Volume % With Diamter Greater Than 2 μm,[4],21 Volume %
same,Particle Size Data-Volume % With Diamter Greater Than 5 μm,[4],4 Volume %
same,Particle Size Data-Volume % With Diamter Greater Than 10 μm,[4],0 Volume %
same,d50,[4],1.3 μm
same,Particle Size Data-Volume % With Diamter Greater Than 1 μm,[5],50 Volume %
same,Particle Size Data-Volume % With Diamter Greater Than 2 μm,[5],11 Volume %
same,Particle Size Data-Volume % With Diamter Greater Than 5 μm,[5],2 Volume %
same,Particle Size Data-Volume % With Diamter Greater Than 10 μm,[5],4 Volume %
same,d50,[5],1.0 μm
same,Particle Size Data-Volume % With Diamter Greater Than 1 μm,[6],94 Volume %
same,Particle Size Data-Volume % With Diamter Greater Than 2 μm,[6],22 Volume %
same,Particle Size Data-Volume % With Diamter Greater Than 5 μm,[6],23 Volume %
same,Particle Size Data-Volume % With Diamter Greater Than 10 μm,[6],18 Volume %
same,d50,[6],1.4 μm
same,Particle Size Data-Volume % With Diamter Greater Than 2 μm,[7],4 Volume %
same,Particle Size Data-Volume % With Diamter Greater Than 5 μm,[7],0 Volume %
same,Particle Size Data-Volume % With Diamter Greater Than 10 μm,[7],2 Volume %
same,Particle Size Data-Volume % With Diamter Greater Than 1 μm,[8],58 Volume %
same,Particle Size Data-Volume % With Diamter Greater Than 2 μm,[8],6 Volume %
same,Particle Size Data-Volume % With Diamter Greater Than 5 μm,[8],2 Volume %
same,Particle Size Data-Volume % With Diamter Greater Than 10 μm,[8],0 Volume %
same,Particle Size Data-Volume % With Diamter Greater Than 1 μm,[9],53 Volume %
same,Particle Size Data-Volume % With Diamter Greater Than 2 μm,[9],7 Volume %
same,Particle Size Data-Volume % With Diamter Greater Than 5 μm,[9],2 Volume %
same,Particle Size Data-Volume % With Diamter Greater Than 10 μm,[9],2 Volume %
same,Particle Size Data-Volume % With Diamter Greater Than 1 μm,[10],54 Volume %
same,Particle Size Data-Volume % With Diamter Greater Than 2 μm,[10],8 Volume %
same,Particle Size Data-Volume % With Diamter Greater Than 5 μm,[10],0 Volume %
same,Particle Size Data-Volume % With Diamter Greater Than 10 μm,[10],2 Volume %
same,Particle Size Data-Volume % With Diamter Greater Than 1 μm,[11],56 Volume %
same,Particle Size Data-Volume % With Diamter Greater Than 2 μm,[11],21 Volume %
same,Particle Size Data-Volume % With Diamter Greater Than 5 μm,[11],8 Volume %
same,Particle Size Data-Volume % With Diamter Greater Than 10 μm,[11],12 Volume %
same,d50,"0.4-0.5 mm zirconium silicate, within about one hour",~1 micron
same,starting particle size,before wet milling,3-4 microns
same,Particle Size Data-Volume % With Diamter Greater Than 1 μm,[1]; [12],92 Volume %
same,Particle Size Data-Volume % With Diamter Greater Than 2 μm,[1]; [12],77 Volume %
same,Particle Size Data-Volume % With Diamter Greater Than 5 μm,[1]; [12],30 Volume %
same,Particle Size Data-Volume % With Diamter Greater Than 10 μm,[1]; [12],8 Volume %
same,Particle Size Data-Volume % With Diamter Greater Than 0.4 μm,[1]; [13],22 Volume %
same,Particle Size Data-Volume % With Diamter Greater Than 1 μm,[1]; [13],3 Volume %
same,Particle Size Data-Volume % With Diamter Greater Than 2 μm,[1]; [13],3 Volume %
same,Particle Size Data-Volume % With Diamter Greater Than 5 μm,[1]; [13],3 Volume %
same,Particle Size Data-Volume % With Diamter Greater Than 10 μm,[1]; [13],3 Volume %
same,d50,[1]; [13],0.31 μm
same,Particle Size Data-Volume % With Diamter Greater Than 0.2 μm,[1]; [14],51 Volume %
same,Particle Size Data-Volume % With Diamter Greater Than 0.4 μm,[1]; [14],3 Volume %
same,Particle Size Data-Volume % With Diamter Greater Than 1 μm,[1]; [14],3 Volume %
same,Particle Size Data-Volume % With Diamter Greater Than 2 μm,[1]; [14],2 Volume %
same,Particle Size Data-Volume % With Diamter Greater Than 5 μm,[1]; [14],1 Volume %
same,Particle Size Data-Volume % With Diamter Greater Than 10 μm,[1]; [14],0 Volume %
same,d50,[1]; [14],0.21 μm
same,d50,[1]; [15],less than 1 micron
same,d95,[1]; [15],less than 1 micron
same,d50,[1]; [16],less than 0.3 microns
same,d95,[1]; [16],less than 0.4 microns
copper citrate,copper in leachate relative to CCA baseline,[2],over fifteen times the baseline concentration
